Assay results published in the NIST ThermoML archive (doi:10.1021/je060271a).
“And” between values parts separate entries of the source, which are not always exact repeats. Identical values can stand only once. Numbers after ± are expanded uncertainties.

Conditions: 343.15 K, Liquid, Vibrating tube method

CCCCCC(=O)OCC(COC(=O)CCCCC)(COC(=O)CCCCC)COC(=O)CCCCC [pentaerythritol tetrahexanoate]
Conditions	mass density
203.8 kPa	957.2 ± 1.2 kg/m3
203.9 kPa	957.2 ± 1.2 kg/m3 and 957.1 ± 1.2 kg/m3
204 kPa	957.1 ± 1.2 kg/m3
204.1 kPa	957.1 ± 1.2 kg/m3 and 957.2 ± 1.2 kg/m3
204.3 kPa	957.2 ± 1.2 kg/m3 and 957.3 ± 1.2 kg/m3
204.5 kPa	957.2 ± 1.2 kg/m3 and 957.3 ± 1.2 kg/m3
204.6 kPa	957.2 ± 1.2 kg/m3 and 957.3 ± 1.2 kg/m3
204.8 kPa	957.3 ± 1.2 kg/m3 [middle of 4 runs]
205 kPa	957.2 ± 1.2 kg/m3 and 957.3 ± 1.2 kg/m3
205.2 kPa	957.2 ± 1.2 kg/m3
205.3 kPa	957.2 ± 1.2 kg/m3 and 957.3 ± 1.2 kg/m3
205.7 kPa	957.2 ± 1.2 kg/m3
205.9 kPa	957.2 ± 1.2 kg/m3
206 kPa	957.2 ± 1.2 kg/m3
206.2 kPa	957.2 ± 1.2 kg/m3
206.4 kPa	957.2 ± 1.2 kg/m3
206.6 kPa	957.2 ± 1.2 kg/m3 and 957.1 ± 1.2 kg/m3
206.7 kPa	957.3 ± 1.2 kg/m3 and 957.2 ± 1.2 kg/m3
206.9 kPa	957.3 ± 1.2 kg/m3 and 957.1 ± 1.2 kg/m3
207.1 kPa	957.2 ± 1.2 kg/m3
207.2 kPa	957.2 ± 1.2 kg/m3
207.3 kPa	957.2 ± 1.2 kg/m3
207.4 kPa	957.2 ± 1.2 kg/m3
207.9 kPa	957.3 ± 1.2 kg/m3
208.3 kPa	957.2 ± 1.2 kg/m3
208.6 kPa	957.2 ± 1.2 kg/m3 and 957.1 ± 1.2 kg/m3
208.8 kPa	957.3 ± 1.2 kg/m3 and 957.2 ± 1.2 kg/m3
209 kPa	957.2 ± 1.2 kg/m3
209.2 kPa	957.3 ± 1.2 kg/m3 and 957.2 ± 1.2 kg/m3
209.3 kPa	957.2 ± 1.2 kg/m3 and 957.3 ± 1.2 kg/m3 and 957.1 ± 1.2 kg/m3
209.5 kPa	957.2 ± 1.2 kg/m3
209.7 kPa	957.2 ± 1.2 kg/m3
209.9 kPa	957.1 ± 1.2 kg/m3 and 957.2 ± 1.2 kg/m3
211.1 kPa	957.2 ± 1.2 kg/m3
212.5 kPa	957.1 ± 1.2 kg/m3
212.6 kPa	957.2 ± 1.2 kg/m3 and 957.3 ± 1.2 kg/m3
212.7 kPa	957.2 ± 1.2 kg/m3
212.8 kPa	957.1 ± 1.2 kg/m3 and 957.2 ± 1.2 kg/m3
213 kPa	957.2 ± 1.2 kg/m3
213.2 kPa	957.2 ± 1.2 kg/m3
213.3 kPa	957.2 ± 1.2 kg/m3
213.5 kPa	957.3 ± 1.2 kg/m3 and 957.2 ± 1.2 kg/m3
213.7 kPa	957.3 ± 1.2 kg/m3 and 957.2 ± 1.2 kg/m3 and 957.1 ± 1.2 kg/m3
213.9 kPa	957.2 ± 1.2 kg/m3 and 957.1 ± 1.2 kg/m3 and 957.4 ± 1.2 kg/m3
214.2 kPa	957.1 ± 1.2 kg/m3
215.2 kPa	957.2 ± 1.2 kg/m3
215.3 kPa	957.3 ± 1.2 kg/m3
215.4 kPa	957.2 ± 1.2 kg/m3 and 957.1 ± 1.2 kg/m3 and 957.3 ± 1.2 kg/m3
215.6 kPa	957.4 ± 1.2 kg/m3 and 957.1 ± 1.2 kg/m3 and 957.2 ± 1.2 kg/m3
215.8 kPa	957.3 ± 1.2 kg/m3
215.9 kPa	957.2 ± 1.2 kg/m3
216 kPa	957.3 ± 1.2 kg/m3
216.1 kPa	957.3 ± 1.2 kg/m3 and 957.2 ± 1.2 kg/m3
216.3 kPa	957.2 ± 1.2 kg/m3 and 957.3 ± 1.2 kg/m3
216.5 kPa	957.3 ± 1.2 kg/m3 and 957.2 ± 1.2 kg/m3
216.6 kPa	957.3 ± 1.2 kg/m3
216.8 kPa	957.2 ± 1.2 kg/m3 and 957.1 ± 1.2 kg/m3
217.7 kPa	957.2 ± 1.2 kg/m3 and 957.3 ± 1.2 kg/m3
218 kPa	957.4 ± 1.2 kg/m3
218.2 kPa	957.1 ± 1.2 kg/m3 and 957.2 ± 1.2 kg/m3
218.6 kPa	957.2 ± 1.2 kg/m3
218.9 kPa	957.2 ± 1.2 kg/m3
219.1 kPa	957.2 ± 1.2 kg/m3
219.3 kPa	957.3 ± 1.2 kg/m3
219.4 kPa	957.1 ± 1.2 kg/m3 and 957.2 ± 1.2 kg/m3 and 957.3 ± 1.2 kg/m3
219.6 kPa	957.4 ± 1.2 kg/m3
219.8 kPa	957.2 ± 1.2 kg/m3
219.9 kPa	957.1 ± 1.2 kg/m3
220 kPa	957.2 ± 1.2 kg/m3
220.3 kPa	957.2 ± 1.2 kg/m3
220.5 kPa	957.2 ± 1.2 kg/m3
220.6 kPa	957.1 ± 1.2 kg/m3
